Measurements published in US8487006B2, “Method of enhancing TGF-β signalling” (Auxagen, Inc., priority 2008, dated 2013).

Columns and labels:
Assay type in all cases: cell-based
[1] = tested on: TGF-β1-stimulated Smad2 phosphorylation in Mv1Lu cells; assay: TGF-β1-stimulated Smad2 phosphorylation, quantitative Western blot (P-Smad2/Smad2); conditions: several concentrations of the inhibitors, 100 pM TGF-β1 for 30 min
Method: (A-I, K) Cells were pretreated with 10 mg/ml β-CD (A, K), 20 LM MDC (B), 40 μM monensin (C), 20 μM TFP (D) and 0.45 M sucrose (K) or several concentrations (as indicated) of β-CD (E), TFP (F), monensin (G), chloroquine (H), dynasore (I), at 37° C. for 1 h. The cells were then stimulated with vehicle only or […] TGF-β1 (A to I) or several concentrations (as indicated) of TGF-β1 (K). After several time periods, as indicated, at 37° C., cell lysates were analysed by 7.5% SDS PAGE followed by Western blot analysis using antibodies to P-Smad2 and Smad2 and chemiluminescence development (a or top) and quantitation by densitometry (b or bottom). The relative level of P-Smad2 was expressed as arbitrary units (A.U.) (A, B, C, D, K) (b). The relative level of P-Smad2 in cells treated with TGF-β alone was taken as 100% of control (E to I, bottom). The data shown is representative of 3 independent experiments. (J) Cells were pretreated with 10 mg/ml β-CD (c,d) at 37° C. for 1 h. The cells were then stimulated with vehicle only (a) or with 100 pM TGF-β (b,d). After 30 min at 37° C. the cells were fixed and subjected to indirect immunofluorescent staining using antibody to P-Smad2. The magnification is 200×. The data shown is representative of 3 independent experiments.
If TGF-β-induced signaling occurs in endosomes, as reported previously^6-15, inhibitors of clathrin-dependent endocytosis would be expected to attenuate TGF-β-stimulated signaling such as Smad2 phosphorylation and nuclear colocalization^4,5. To test this, Mv1Lu cells were pretreated with vehicle only or with clathrin-dependent endocytosis inhibitors at 37° C. for 30 min and then treated with or without 100 pM TGF-β1. After several time periods, the relative levels of P-Smad2 in treated and stimulated cells were analyzed by quantitative Western blot analysis using antibodies to P-Smad2 and Smad2. […] After stimulation of cells with TGF-β1 for 60 min, β-CD, TFP, MDC and monensin enhanced TGF-β1-stimulated Smad2 phosphorylation by ˜1.5-2.5 fold (FIGS. 1Ab, 1Bb, 1Cb, and 1Db). To further characterize the effects of these inhibitors on Smad2 phosphorylation, Mv1Lu cells were pretreated with vehicle only or with several concentrations of the inhibitors at 37° C. for 30 min and then stimulated with 100 pM of TGF-β1. After 30 min at 37° C., cell lysates were subjected to Western blot analysis using antibodies to P-Smad2 and Smad2 followed by quantitation with densitometry. […] To determine the effect of β-CD on TGF-β1-stimulated nuclear localization of P-Smad2, Mv1Lu cells were pretreated with vehicle only or with β-CD (10 mg/ml). After 1 h at 37° C., cells were stimulated with TGF-β1 ([…]) for 30 min. The nuclear localization of P-Smad2 was then analyzed by indirect fluorescent staining.
To define the coated-pit stages that are important in TGF-β1-induced signaling, we treated Mv1Lu cells with hyperosmotic sucrose (0.45 M) or β-CD and examined TGF-β1-stimulated Smad2 phosphorylation in these cells. […] In cells stimulated with 100 pM TGF-β1, hyperosmotic sucrose attenuated Smad2 phosphorylation by ˜60% (FIG. 1Kb). On the other hand, β-CD enhanced TGF-β1-stimulated Smad2 phosphorylation at all concentrations of TGF-β1. It enhanced TGF-β1-stimulated Smad2 phosphorylation by 2-4 fold when compared with the control (treatment without β-CD) (FIGS. 1Ka and 1Kb).

[2] = tested on: PAI-1 expression in bovine aortic endothelial cells (BAEC cells); assay: TGF-β-stimulated expression of PAI-1 in BAEC cells; conditions: dynasore 50 μM; BAEC cells (unpublished results)
Method: We hypothesize that TGF-β enhancers such as inhibitors of clathrin-dependent endocytosis may ameliorate atherosclerosis caused by cholesterol-induced suppression of TGF-β responsiveness in vascular cells^3,12. To test our hypothesis, we treated hypercholesterolemic ApoE-null mice with dynasore (1 mg/kg body weight) via intraperitoneal administration every two days for 8 weeks. We chose dynasore for two reasons. […] At 50 μM, it enhances TGF-β-stimulated expression of PAI-1 in these cell types by ˜4-5 fold, 2) Dynasore is the only inhibitor tested which alone is capable of stimulating PAI-1 expression. […] The plasma levels of cholesterol in wild-type mice treated with either vehicle only or dynasore were 120±10 and 125±20 mg/dl, respectively.

[3] = tested on: TβR-I and SARA at the plasma membrane in Mv1Lu cells; assay: Co-localization and accumulation of TβR-I and SARA, immunofluorescent microscopy; conditions: 20 μM TFP, 10 mg/ml β-CD, 40 μM dynasore, 200 μM chloroquine, with 100 pM TGF-β1, 30 min
Method: Cells were pretreated with vehicle only or 20 μM TFP, 10 mg/ml β-CD, 40 μM dynasore (Dyn) and 200 μM chloroquine (CQ) at 37° C. for 1 h. Treated cells were then stimulated with and without 100 pM TGF-β1. After 30 min at 37° C., cells were fixed and analyzed by indirect immunofluorescent staining using antibody to TβR-I (panels 1-10) and SARA (panels 11-20), DAPI (nuclear) staining was also performed (panels 21-30). Merged staining is also shown (panels 31-40). Insets indicate the co-localization and accumulation of SARA and TβR-I at the plasma membrane.
TGF-β stimulates Smad2 phosphorylation by inducing association of TβR-I and SARA^6,7 (which serves as an anchor for Smad2), binding of Smad2 to SARA, and subsequent phosphorylation of Smad2 by TβR-I in the TβR-1-SARA-Smad2 complex. If clathrin-dependent endocytosis inhibitors enhance TGF-β-induced signaling (TGF-β-stimulated Smad2 phosphorylation) by increasing accumulation of TβR-I/TβR-II complexes at the coated pits, they should promote co-localization and accumulation of TβR-I and SARA at the plasma membrane. To test this, Mv1Lu cells were stimulated with 100 pM TGF-β1. After 30 min at 37° C., […] analyzed by immunofluorescent microscopy using antibodies to TβR-I and SARA. […] This is consistent with the previous report that TGF-β enhances TGF-β receptor internalization^16.

O=C(N/N=C/c1ccc(O)c(O)c1)c1cc2ccccc2cc1O [dynasore]
concentration dependence of the effect on TGF-β1-stimulated Smad2 phosphorylation [1]: enhanced TGF-β1-stimulated Smad2 phosphorylation in a concentration-dependent manner | enhancement of TGF-β-stimulated expression of PAI-1 [2]: 4-5 fold | co-localization and accumulation of TβR-I and SARA at the plasma membrane, co-treatment with TGF-β1 [3]: promoted co-localization and accumulation of TβR-I and SARA at the plasma membrane
